How the values were obtained:
HT29 cells = assay: PGE2 assay in HT29 cells; assay type: cell-based; conditions: inhibitor alone
Procedure: Caco-2 cells were plated in 6 well plates at a density of 2×10^5 cells/well. After 24 hours, the medium was replaced with fresh medium containing 0.1% serum with or without, sorbinil (20 μM) followed by treatment with either 10 ng/ml BFGF or PDGF, for another 24 h. HT29 cells were plated in 6 well plate at a density of 2×10^5 cells/well. After 24 hours, medium was replaced with serum-free medium with or without, sorbinil or zopolrestat (20 μM) followed by treatment with either EGF (5 ng/ml) or BFGF (10 ng/ml) for another 24 h. The medium from each cell lines was collected from each well and analyzed for PGE2 by using an Enzyme Immuno Assay kit according to the manufacturer's instructions (Cayman Chemical Co., Inc.).
Briefly, 50 μl of diluted standard/sample were pipetted into a pre-coated goat polyclonal anti-mouse IgG 96-well plate. Aliquots (50 μl) of a PGE2 monoclonal antibody and PGE2 acetylcholine esterase (AchE) conjugate, (PGE2 tracer) were added to each well and allowed to incubate at 4° C. for 24 h. After incubation, the wells were washed five times with wash buffer containing 0.05% Tween-20, followed by the addition of 200 μl of Ellman's reagent containing acetylthiocholine and 5,5′-dithio-bis-(2-nitrobenzoic acid). Samples were read after 60 min at 412 nm with an ELISA reader. […]

A549 cells = assay: Western blot of cell cycle regulatory proteins in A549 cells; assay type: cell-based, human; conditions: various concentrations
Procedure: To examine expression of any of Cox-1, Cox-2, phospho-PKC-2, GAPDH, E2F1, Cyclin D1, Cyclin E, and iNOS proteins, Western blot analyses were carried by known methods (15). Equal amounts of protein from cell extracts were subjected to 12% SDS-PAGE followed by transfer of proteins to nitrocellulose filters, probing with the indicated antibodies, and the antigen-antibody complex was detected by enhanced chemiluminescence (Pierce, Piscataway, N.J., USA).

Substance: (S)-6-fluorospiro[chroman-4,4′-imidazolidine]-2,5′-dione [sorbinil]
- constitutive levels of PGE2 (HT29 cells): did not inhibit
- E2F-1, Cyclin E and Cyclin D1 expression (A549 cells): significant inhibition

Reference: US8551997B2, “Structural-based inhibitors of the glutathione binding site in aldose reductase, methods of screening therefor and methods of use” (The Board of Regents of the University of Texas System, priority 2004, dated 2013)
